Results on one molecule are retold here after PMC3713324, “Polyisoprenylated Methylated Protein Methyl Esterase Is Both Sensitive to Curcumin and Overexpressed in Colorectal Cancer: Implications for Chemoprevention and Treatment” (BioMed Research International, 2013).

The target of this experiment is T1, polyisoprenylated methylated protein methyl esterase (PMPMEase) (Sus scrofa, UniProt Q29550).
T1 construct: purified PMPMEase
T1 sequence (Q29550 19-566): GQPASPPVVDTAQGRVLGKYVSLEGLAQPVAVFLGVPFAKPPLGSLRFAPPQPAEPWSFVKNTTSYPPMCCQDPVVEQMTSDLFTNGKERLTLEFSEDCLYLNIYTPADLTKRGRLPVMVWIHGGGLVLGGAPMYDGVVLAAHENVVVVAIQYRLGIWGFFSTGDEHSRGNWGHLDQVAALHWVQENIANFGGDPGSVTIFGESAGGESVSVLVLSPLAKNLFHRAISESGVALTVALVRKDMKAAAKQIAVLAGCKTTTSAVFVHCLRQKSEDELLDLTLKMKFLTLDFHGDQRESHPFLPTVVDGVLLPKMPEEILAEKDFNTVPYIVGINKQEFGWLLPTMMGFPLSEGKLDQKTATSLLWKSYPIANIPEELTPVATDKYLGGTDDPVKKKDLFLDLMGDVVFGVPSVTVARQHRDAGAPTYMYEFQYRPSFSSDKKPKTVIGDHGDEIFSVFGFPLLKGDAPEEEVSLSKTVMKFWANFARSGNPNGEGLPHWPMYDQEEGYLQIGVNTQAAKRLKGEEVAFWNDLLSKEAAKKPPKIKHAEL
Put plainly: RP-HPLC assay of RD-PNB hydrolysis by purified enzyme; Michaelis-Menten kinetics; reversibility by gel filtration. In kind it is biochemical.

What is called Ki is a dissociation constant, usually derived from enzyme kinetics or from competition with a known ligand. A lower Ki goes with higher affinity. For the molecule `COc1cc(/C=C/C(=O)CC(=O)/C=C/c2ccc(O)c(OC)c2)ccc1O` [curcumin], the affinity, expressed as Ki, was 310 nM.
